Key:
[1] = system: patients with atherosclerosis undergoing PCI; type: in vivo; settings: human, in vivo, 48 h
Procedure: The primary safety end point was severe bleeding not related to coronary-artery bypass grafting, according to the Global Use of Strategies to Open Occluded Coronary Arteries (GUSTO) criteria, at 48 hours. Several other bleeding definitions were also applied.

[2] = system: patients with acute coronary syndromes undergoing PCI; experiment: Example 2: bleeding (GUSTO, TIMI, ACUITY) and adverse events up to 48 hours; type: in vivo, human
Text: Multiple definitions of bleeding were used for full disclosure of bleeding risks associated with cangrelor: […] N Engl J Med 329:673-82 (1993); mild, moderate, or severe/life-threatening based on transfusion use and presence/absence of hemodynamic compromise); […] Investigators reported adverse and serious adverse events according to International Conference on Harmonization guidance (International Conference on Harmonization (ICH) Guidance Documents. U.S. Food and Drug Administration Web site. (Accessed on Oct. 8, 2009, at the FDA website beginning with “www.” and ending with “fda.gov/RegulatoryInformation/Guidances/ucm122049.htm”)).

[3] = system: vasodilator-stimulated phosphoprotein (VASP); experiment: Example 4: vasodilator-stimulated phosphoprotein (VASP) index; type: in vivo, human
Procedure: The study involved 12 patients who met the criteria of being 18-75 years of age, having coronary artery disease (CAD) documented by a previous MI or coronary revascularization, and taking 81 mg of aspirin daily. […] Prohibited concomitant medications included strong and potent CYP3A inhibitors, simvastatin and lovastatin at doses more than 40 mg/day, omeprazole or esomeprazole, and digoxin. Use of non-steroidal anti-inflammatory agents was discouraged during study participation but not prohibited.
Each patient was administered a 30 μg/kg bolus of cangrelor followed immediately by a 2 hr infusion at a rate of 4.0 μg/kg/min. A loading dose of ticagrelor (180 mg) was given after 0.5 hr or 1.25 hr (n=6 for each). Blood for pharmacodynamic platelet function studies was taken after 0.5 or 1.25 hr (corresponding to the time of ticagrelor load, n=6 for each), and then at 1.75, 2, 2.25, 2.5, 2.75, 3, 4, and 5.25 hr. Patients were assigned randomly to receive either 6 (n=6) or 7 (n=6) doses of ticagrelor to be taken every 12 hours following the discontinuation of the infusion of cangrelor. On study day 5, each patient was administered a 30 μg/kg bolus of cangrelor followed immediately by a 2 hr infusion at a rate of 4.0 μg/kg/min. Blood for pharmacodynamic assessment was taken after 1 and 2 hr. Adverse events were queried throughout study participation that ended with a telephone interview performed on study day 10-12.
Pharmacodynamic assessment included light transmission aggregometry (LTA), VerifyNow® P2Y12 assay, vasodilator-stimulated phosphoprotein (VASP) index, and platelet activation measured with the use of flow cytometry. Assessment of LTA, VerifyNow®, and platelet activation with the use of flow cytometry was performed within 30 min of blood being taken. In the case of flow cytometry, samples were processed to fixation and then batched for analysis. For VASP, index samples were batched and processed as recommended by the vendor within 2 h of blood being taken. This approach limited the time from fixation of VASP index to flow analysis to less than 1 h.
LTA induced by 5 μM and 20 μM adenosine diphosphate (ADP) was quantified ex vivo (i.e. in non-adjusted platelet rich plasma). Platelet-poor plasma was set as 100% aggregation, and both maximal (peak) and terminal (at 300 s) aggregation were measured with a PAP4 aggregometer (BioData, Horsham, Pa.). VerifyNow® P2Y12 assay (Accumetrics Inc, San Diego, Calif.) that measures the effects of drugs on the P2Y12 receptor by activating platelets with prostaglandin El in addition to ADP was used in accordance with the instructions provided by the manufacturer. Platelet reactivity was expressed in P2Y12 reaction units (PRU). Activation of platelets was identified with the use of flow cytometry as previously described.^17. And to determine the VASP index, a commercially available kit (Diagnostica Stago, Inc, Parsippany NJ) was used. ^17 Schneider D J, Sobel B E. Streamlining the design of promising clinical trials: in-vitro testing of antithrombotic regimens and multiple agonists of platelet activation. Coron Artery Dis. 2009; 20:175-8.

COC(=O)[C@H](c1ccccc1Cl)N1CCc2sccc2C1 [Clopidogrel, clopidogrel, reference compound]
Any blood transfusion [1]: 16/5527 (0.3) number/total number (percent) | GUSTO-defined bleeding, primary safety end point: severe or life-threatening bleeding [1]: 6/5527 (0.1) number/total number (percent) | GUSTO-defined moderate bleeding [1]: 13/5527 (0.2) number/total number (percent) | GUSTO-defined severe or moderate bleeding [1]: 19/5527 (0.3) number/total number (percent) | TIMI-defined major bleeding [1]: 5/5527 (0.1) number/total number (percent) | TIMI-defined major or minor bleeding [1]: 8/5527 (0.3) number/total number (percent) | TIMI-defined minor bleeding [1]: 3/5527 (0.1) number/total number (percent) | adverse events that led to discontinuation of the study drug [1]: 0.4% | rate of GUSTO-defined severe bleeding (primary safety end point) [1]: 0.11% | rate of adverse events related to treatment [1]: 19.1% | transient dyspnea [1]: 0.3% | ACUITY criteria Major bleeding ([2]; 48-hour, safety population): 126 (2.9) no. (%) | ACUITY criteria Minor bleeding ([2]; 48-hour, safety population): 663 (15.2) no. (%) | Access site bleeding requiring radiologic or surgical intervention ([2]; 48-hour, safety population): 10 (0.2) no. (%) | Any blood transfusion ([2]; 48-hour, safety population): 42 (1.0) no. (%) | Any platelet transfusion ([2]; 48-hour, safety population): 5 (0.1) no. (%) | Drop in hemoglobin and/or hematocrit ([2]; 48-hour, safety population): 63 (1.4) no. (%) | Ecchymosis ([2]; 48-hour, safety population): 234 (5.4) no. (%) | Epistaxis ([2]; 48-hour, safety population): 22 (0.5) no. (%) | GUSTO criteria Mild bleeding ([2]; 48-hour, safety population): 739 (16.9) no. (%) | GUSTO criteria Moderate bleeding ([2]; 48-hour, safety population): 34 (0.8) no. (%) | GUSTO criteria Severe/life-threatening bleeding ([2]; 48-hour, safety population): 11 (0.3) no. (%) | Hematoma <5 cm at puncture site ([2]; 48-hour, safety population): 222 (5.1) no. (%) | Hematoma ≧5 cm at puncture site ([2]; 48-hour, safety population): 76 (1.7) no. (%) | Hemodynamic compromise ([2]; 48-hour, safety population): 11 (0.3) no. (%) | Intracranial hemorrhage ([2]; 48-hour, safety population): 0 (0.0) no. (%) | Intraocular ([2]; 48-hour, safety population): 0 (0.0) no. (%) | Oozing at puncture site ([2]; 48-hour, safety population): 319 (7.3) no. (%) | Reoperation for bleeding ([2]; 48-hour, safety population): 1 (0.0) no. (%) | Retroperitoneal ([2]; 48-hour, safety population): 10 (0.2) no. (%) | TIMI criteria Major bleeding ([2]; 48-hour, safety population): 14 (0.3) no. (%) | TIMI criteria Minor bleeding ([2]; 48-hour, safety population): 26 (0.6) no. (%) | Thrombocytopenia ([2]; 48-hour, safety population): 7 (0.2) no. (%) | Dyspnea ([2]; human, in vivo, 48 h): 0.4% | Serious adverse events ([2]; human, in vivo, 48 h): 2.7% | discontinuation of study drug due to an adverse event ([2]; human, in vivo, 48 h): 0.5% | Reported adverse events ([2]; safety population): 25.7%

CCCSc1nc(N[C@@H]2C[C@H]2c2ccc(F)c(F)c2)c2nnn([C@@H]3C[C@H](OCCO)[C@@H](O)[C@H]3O)c2n1 [ticagrelor]
VASP Index VI ([3]; 2.25 h, All): 35 ± 10 | VASP Index VI ([3]; 2.25 h, Ticagrelor at 0.5 h): 37 ± 8 | VASP Index VI ([3]; 2.25 h, Ticagrelor at 1.25 h): 32 ± 11 | VASP Index VI ([3]; 2.5 h, All): 48 ± 49 | VASP Index VI ([3]; 2.5 h, Ticagrelor at 0.5 h): 41 ± 25 | VASP Index VI ([3]; 2.5 h, Ticagrelor at 1.25 h): 54 ± 32 | VASP Index VI ([3]; 2.75 h, All): 22 ± 16 | VASP Index VI ([3]; 2.75 h, Ticagrelor at 0.5 h): 21 ± 13 | VASP Index VI ([3]; 2.75 h, Ticagrelor at 1.25 h): 22 ± 20 | VASP Index VI ([3]; 3 h, All): 25 ± 19 | VASP Index VI ([3]; 3 h, Ticagrelor at 0.5 h): 24 ± 19 | VASP Index VI ([3]; 3 h, Ticagrelor at 1.25 h): 26 ± 20 | VASP Index VI ([3]; 4 h, All): 17 ± 14 | VASP Index VI ([3]; 4 h, Ticagrelor at 0.5 h): 16 ± 14 | VASP Index VI ([3]; 4 h, Ticagrelor at 1.25 h): 19 ± 16 | VASP Index VI ([3]; reference 5.25 h, All): 12 ± 12 | VASP Index VI ([3]; reference 5.25 h, Ticagrelor at 0.5 h): 11 ± 10 | VASP Index VI ([3]; reference 5.25 h, Ticagrelor at 1.25 h): 14 ± 15
